Data as given in patent US7888357B2, “Anti-inflammatory and protein kinase inhibitor compositions and related methods for downregulation of detrimental cellular responses and inhibition of cell death” (Northwestern University, priority 2001, dated 2011).
Like-named read-outs stand apart in the source and are kept apart here.

Legend:
[1] = molecular target: T1, myosin light chain kinase (MLCK) (Gallus gallus, UniProt P11799); assay: Reconstituted enzyme assay, MLCK; type: biochemical, chicken
T1 construct: chicken gizzard MLCK prepared as described; from tissue; host or cells: chicken gizzard
T1 sequence (P11799 935-1906): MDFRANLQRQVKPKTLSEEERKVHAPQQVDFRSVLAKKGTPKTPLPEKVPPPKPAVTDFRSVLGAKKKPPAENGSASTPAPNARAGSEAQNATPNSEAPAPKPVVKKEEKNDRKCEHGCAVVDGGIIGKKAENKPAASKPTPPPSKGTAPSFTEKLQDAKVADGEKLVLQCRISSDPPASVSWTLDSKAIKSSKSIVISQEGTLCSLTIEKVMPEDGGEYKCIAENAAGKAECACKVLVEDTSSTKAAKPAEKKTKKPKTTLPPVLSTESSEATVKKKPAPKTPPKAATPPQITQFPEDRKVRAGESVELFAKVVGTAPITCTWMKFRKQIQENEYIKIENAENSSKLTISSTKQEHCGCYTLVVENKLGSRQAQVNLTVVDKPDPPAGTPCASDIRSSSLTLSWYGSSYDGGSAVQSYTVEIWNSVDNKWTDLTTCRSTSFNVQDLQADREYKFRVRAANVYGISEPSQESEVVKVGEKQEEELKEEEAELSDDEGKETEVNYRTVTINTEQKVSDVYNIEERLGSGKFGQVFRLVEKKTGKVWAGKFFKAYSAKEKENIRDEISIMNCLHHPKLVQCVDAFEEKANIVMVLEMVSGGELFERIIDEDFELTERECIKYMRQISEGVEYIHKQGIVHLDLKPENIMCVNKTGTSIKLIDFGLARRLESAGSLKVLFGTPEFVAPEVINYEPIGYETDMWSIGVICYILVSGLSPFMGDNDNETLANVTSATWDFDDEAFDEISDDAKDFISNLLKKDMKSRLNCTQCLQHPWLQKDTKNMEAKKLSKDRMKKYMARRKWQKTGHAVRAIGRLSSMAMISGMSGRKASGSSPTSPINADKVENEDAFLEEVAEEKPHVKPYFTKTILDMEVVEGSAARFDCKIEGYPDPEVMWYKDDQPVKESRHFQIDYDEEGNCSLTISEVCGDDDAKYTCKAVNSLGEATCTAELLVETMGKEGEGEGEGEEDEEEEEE
Protocol: (§1) [table] […] The rationale for using BV-2 cells in high throughput screening was the paucity of well-characterized human microglial cell lines, and the relevant activation responses and signaling pathways reflect those seen in human and rodent primary microglial cultures. Compounds were tested for their effects on NO accumulation in conditioned media of LPS-stimulated BV-2 cells by measurement of nitrite production by the Griess assay as a read-out for iNOS activity, as described previously. Stock solutions of compounds were prepared in dimethylsulfoxide (DMSO) or in water. When stock solutions were prepared in DMSO, control wells contained the same final concentration of DMSO as the compound-containing wells. […] Solutions of compounds for cell treatments were diluted to a 10× final concentration by dilution of stock solutions in αMEM media. […] Reconstituted enzyme assays were done as described s. The sources of protein kinases were: bovine heart PKA from Promega, rat brain PKC from Calbiochem, rat CaMKII from New England Biolabs, chicken gizzard MLCK prepared as described, and a p38 MAP kinase kit containing recombinant Xenopus p38-MAPK and its human substrate from Upstate Biotechnology. The catalytic domains of these protein kinases retain a high level of amino acid sequence identity across mammalian species, consistent with the lack of documented major differences across species for the in vitro catalytic activity of a given kinase.

[2] = molecular target: protein kinase C (PKC); assay: Reconstituted enzyme assay, PKC; type: biochemical, rat
Protocol: as §1

[3] = molecular target: T2, CaMKII (Rattus norvegicus, UniProt P11275); assay: Reconstituted enzyme assay, CaMKII; type: biochemical; conditions: Table 6; read-out: Inhibition CAMKII
T2 construct: purchased New England Biolabs
T2 sequence (P11275 1-325 limits assumed): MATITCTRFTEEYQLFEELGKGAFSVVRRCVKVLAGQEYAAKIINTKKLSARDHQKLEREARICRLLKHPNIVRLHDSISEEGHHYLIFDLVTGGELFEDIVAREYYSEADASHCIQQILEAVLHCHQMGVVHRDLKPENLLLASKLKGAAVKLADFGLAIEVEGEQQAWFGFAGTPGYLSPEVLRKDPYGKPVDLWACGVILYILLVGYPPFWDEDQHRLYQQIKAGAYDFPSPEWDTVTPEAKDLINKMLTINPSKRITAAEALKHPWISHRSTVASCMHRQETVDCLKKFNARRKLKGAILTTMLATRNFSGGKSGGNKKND
Protocol: as §1

[4] = molecular target: death associated protein kinase (DAPK) (Homo sapiens, UniProt P53355); assay: Enzyme assay, DAPK; type: biochemical; conditions: Table 6; read-out: Inhibition DAPK
Chain of death associated protein kinase (DAPK) (P53355 whole entry, species assumed): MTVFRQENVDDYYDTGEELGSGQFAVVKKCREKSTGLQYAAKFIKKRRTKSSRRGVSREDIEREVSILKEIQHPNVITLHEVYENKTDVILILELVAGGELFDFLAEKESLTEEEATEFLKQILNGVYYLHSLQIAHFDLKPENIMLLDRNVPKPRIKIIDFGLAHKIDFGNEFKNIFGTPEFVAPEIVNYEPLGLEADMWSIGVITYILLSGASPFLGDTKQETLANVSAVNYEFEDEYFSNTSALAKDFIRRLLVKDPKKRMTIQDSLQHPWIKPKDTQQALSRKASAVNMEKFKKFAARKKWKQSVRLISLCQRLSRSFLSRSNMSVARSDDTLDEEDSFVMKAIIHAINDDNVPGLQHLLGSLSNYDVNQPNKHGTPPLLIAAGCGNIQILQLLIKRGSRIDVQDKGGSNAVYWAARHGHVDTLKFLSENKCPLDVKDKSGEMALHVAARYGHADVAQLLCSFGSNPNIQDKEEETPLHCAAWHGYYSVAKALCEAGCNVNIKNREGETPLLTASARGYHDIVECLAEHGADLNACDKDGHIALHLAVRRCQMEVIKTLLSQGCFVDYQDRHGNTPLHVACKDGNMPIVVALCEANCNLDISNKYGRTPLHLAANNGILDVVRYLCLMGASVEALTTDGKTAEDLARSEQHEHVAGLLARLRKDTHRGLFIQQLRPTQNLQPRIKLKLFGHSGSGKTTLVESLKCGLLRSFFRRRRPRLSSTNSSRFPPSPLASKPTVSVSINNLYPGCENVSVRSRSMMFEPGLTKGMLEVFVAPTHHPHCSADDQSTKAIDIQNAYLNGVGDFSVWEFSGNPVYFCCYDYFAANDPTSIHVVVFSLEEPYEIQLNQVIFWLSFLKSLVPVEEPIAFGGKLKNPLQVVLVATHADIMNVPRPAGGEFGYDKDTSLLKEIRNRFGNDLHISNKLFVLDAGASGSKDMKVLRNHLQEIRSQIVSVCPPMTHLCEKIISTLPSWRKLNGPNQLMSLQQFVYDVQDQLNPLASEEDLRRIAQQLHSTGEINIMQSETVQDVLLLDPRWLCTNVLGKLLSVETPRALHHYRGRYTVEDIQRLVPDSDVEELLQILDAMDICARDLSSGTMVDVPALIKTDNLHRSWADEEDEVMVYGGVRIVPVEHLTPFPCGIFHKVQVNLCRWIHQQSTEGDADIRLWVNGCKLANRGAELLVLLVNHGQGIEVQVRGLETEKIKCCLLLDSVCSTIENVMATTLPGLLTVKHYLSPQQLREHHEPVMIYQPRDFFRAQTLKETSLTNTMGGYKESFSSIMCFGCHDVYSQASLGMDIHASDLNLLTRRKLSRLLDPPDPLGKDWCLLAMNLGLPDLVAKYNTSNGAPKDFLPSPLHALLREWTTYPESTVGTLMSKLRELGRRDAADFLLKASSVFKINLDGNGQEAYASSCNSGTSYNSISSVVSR
Protocol: Therefore, compound MW01-026Z was selected as a starting point for variations on component A (Table 6). […] However, none of the A variations appeared to improve the activity and selectivity profile of CompoundMW01-026Z. (For purposes of illustration, only, component G was maintained throughout as an acyl moiety, while component R2 was varied as shown. All such compositions are available using the synthetic techniques described herein. Enzyme assays were conducted per procedures described elsewhere herein.) A more comprehensive structure activity relationship is summarized in Table 7, below.
With reference to the compositions of Table 3 and the enzyme assay techniques described elsewhere herein, Table 7 provides structural activity relationships observed, in accordance with this invention.

[5] = tested on: rat astrocytes; assay: Western blot of glial activation responses in rat astrocyte cultures; type: cell-based; conditions: LPS-stimulated rat astrocytes, 24 hr, Western blot
Protocol: FIG. 2. Selective effects of compound 1 (MW01-070C) on glial activation responses and gene-regulating protein kinase pathways. BV-2 cells and rat astrocytes were treated with control buffer (C) or stimulated with LPS or Aβ1-42 peptide in the presence or absence of compound 1, and cell lysates were analyzed by Western blots. (A) Astrocytes treated with LPS and compound 1 show concentration-dependent inhibition of iNOS and IL-1β production but not GFAP. (B) Astrocytes treated with A β1-42 and compound 1 (10 μM) show inhibition of iNOS and IL-1β but not apoE and COX-2. (C) BV-2 cells treated with LPS and compound 1 (10 μM) show inhibition of phosphorylated (p-) CREB but not p-p38 and p-ATF2, as assayed with antibodies that are specific for the phosphorylated forms of the proteins. Data are expressed as percent control (mean±SD; n=3 determinations).
(§2) The rationale for using BV-2 cells in high throughput screening was the paucity of well-characterized human microglial cell lines, and the relevant activation responses and signaling pathways reflect those seen in human and rodent primary microglial cultures. Compounds were tested for their effects on NO accumulation in conditioned media of LPS-stimulated BV-2 cells by measurement of nitrite production by the Griess assay as a read-out for iNOS activity, as described previously. Stock solutions of compounds were prepared in dimethylsulfoxide (DMSO) or in water. When stock solutions were prepared in DMSO, control wells contained the same final concentration of DMSO as the compound-containing wells. […] Solutions of compounds for cell treatments were diluted to a 10× final concentration by dilution of stock solutions in αMEM media. The commercially available drugs tested were: compound 5 (KN93 from Alexis); compound 6 (pyrrolidinedithiocarbamate or PDTC from Sigma), compound 7 (SB203580 from Alexis Corporation), compound 8 (PD98059 from Alexis Corporation), and compound 9 (UO126 from Cell Signaling). SB203580, U0126 and PD98059, PDTC, and KN93 are used as pathway-selective inhibitors of p38 MAPK, MEK1/2, NFκB, and CaMKII signaling pathways. Respectively, Western blots of cell lysates were done with the following antibodies: monoclonal anti-iNOS (1:1000 dilution, Transduction Labs); polyclonal anti-rat IL-1β (1:1000 dilution, R&D Systems, Inc.); monoclonal anti-glial fibrillary acidic protein (GFAP) (1:[…] dilution, Sigma); polyclonal anti-rat alioE (1:15,000 dilution) prepared as described; polyclonal anti-COX-2 (1:500 dilution) and monoclonal anti-phosphoATF2 (1:1000 dilution) from Santa Cruz Biotechnology, polyclonal anti-phosphoCREB (1:1000 dilution), and polyclonal anti-phosphop38 MAPK (1:1000 dilution). Reconstituted enzyme assays were done as described s. The sources of protein kinases were: bovine heart PKA from Promega, rat brain PKC from Calbiochem, rat CaMKII from New England Biolabs, chicken gizzard MLCK prepared as described, and a p38 MAP kinase kit containing recombinant Xenopus p38-MAPK and its human substrate from Upstate Biotechnology. The catalytic domains of these protein kinases retain a high level of amino acid sequence identity across mammalian species, consistent with the lack of documented major differences across species for the in vitro catalytic activity of a given kinase.
FIG. 5. Effects of two compounds on LPS-stimulated INOS and IL-1β production in rat astrocyte cultures. Astrocyte cultures were incubated for 24 hr with control buffer (C), LPS (100 ng/ml) alone, or LPS in the presence of increasing concentrations (0.1, 0.3, 1, 3, 10 μM) of MW01-070C (panel A) or MW01-196A (panel B). The levels of iNOS, proIL-1β, and GFAP were determined by Western blot of cell lysates.
FIG. 6. Effects of MW01-070C on astrocytes treated with various activating stimuli, and analysis of multiple activation responses. Astrocyte cultures were stimulated for 12 hr with Aβ (10 μM), S100B (0.5 μM), or LPS (100 ng/ml) in the absence (−) or presence (+) of MW01-070C (10 μM). […]

[6] = tested on: BV-2 microglial cells; assay: Cell-based screen for inhibition of LPS-stimulated NO release (Griess assay); set-up: species or system murine; conditions: LPS-stimulated BV-2 cells, 24 hr, nitrite in conditioned media
Protocol: FIG. 1. Cell-based screen for inhibition of LPS-stimulated NO release. […] Inhibition is expressed as percent control, where the control is the NO accumulation from cells stimulated with LPS alone.
as §2, with “SB203580, U0126 and PD98059, PDTC, and KN93 are used as pathway-selective inhibitors of p38 MAPK, MEK1/2, NFκB, and CaMKII signaling pathways.” left out
FIG. 4. Cell-based screen for functional effects of synthetic compounds on LPS-stimulated NO release from BV-2 cells. BV-2 cells were incubated for 24 hr with LPS (500 ng/ml) in the presence of increasing concentrations of: A) MW01-070C; B) MW01-026Z; C) MW01-118Z; D) MW01-119Z; E) MW01-051Z; F) MW01-160Z; G) MW01-196A; H) MW01-024Z; I) SB203580; J) PDTC; K) U0126; L) PD98059. The nitrite levels in conditioned media were determined. Inhibition is expressed as percentage of control values, where the control is the nitrite level in cells stimulated with LPS alone.
Compounds were tested for their effects on NO production by LPS-stimulated BV-2 cells as previously described [Mirzoeva, S., Koppal, T., Petrova, T. V., Lukas, T. J., Watterson, D. M., and Van Eldik, L. J. (1999) Brain Res. 844, 126-134]. The levels of nitrite, a stable NO metabolite, in conditioned media were determined by the Griess assay as previously described [Hu, J., Castets, F., Guevara, J. L., and Van Eldik, L. J. (1996) J. Biol. Chem. 271, 2543-2547]. Stock solutions of compounds were prepared in DMSO or in water. When stock solutions were prepared in DMSO, control wells contained the same final concentration of DMSO as the compound-containing wells. Solutions of compounds for cell treatments were diluted to a 10× final concentration by dilution of stock solutions of drugs in αMEM media.

[7] = Table 6, read-out: Inhibition MLCK
[8] = Table 6, read-out: Inhibition KC

**Q.** With `COc1ccc(S(=O)(=O)N(CCO)c2ccccc2CN(C)C/C=C/c2ccc(Cl)cc2)cc1` [Compound 5, KN93, reference compound] as the compound, how does the IC50 ([1]; γ-[32P]-ATP, synthetic peptide substrate, mean ± SEM, read-out: IC50 MLCK) read?
**A.** Its IC50 is 9.8 ± 0.7 µM.

**Q.** What about the IC50 ([2]; γ-[32P]-ATP, synthetic peptide substrate, read-out: IC50 PKC) of the same compound?
**A.** The IC50 was over 100 µM.

**Q.** How did the IC50 [1, 7] turn out when `Cc1cc(NC(=O)CCCCCCCCCCn2nc3c(cc2=N)CCc2ccccc2-3)nnc1-c1ccccc1` [MW01-008B] was run?
**A.** Its IC50 is under 20 µM.

**Q.** And the IC50 [3]?
**A.** The IC50 was 50 to 100 µM.

**Q.** What about the IC50 [4] of the same compound?
**A.** The IC50 was 50 to 100 µM.

**Q.** For `Cc1ccc(NC(=O)CCCCCCCCCCn2nc3c(cc2=N)CCc2ccccc2-3)nn1` [MW01-020B], which IC50 [1, 7] is on record?
**A.** Its IC50 is over 100 µM.

**Q.** And the IC50 [3]?
**A.** Its IC50 is over 100 µM.

**Q.** And the IC50 [4]?
**A.** Its IC50 is over 100 µM.

**Q.** For `Cc1ccc(=N)n(CCCCCCCCCCC(=O)Nc2ccc(-c3ccccc3)nn2)n1` [MW01-031Z], which IC50 [1, 7] is on record?
**A.** The IC50 was under 20 µM.

**Q.** What about the IC50 [3] of the same compound?
**A.** The IC50 was over 100 µM.

**Q.** And the IC50 [4]?
**A.** Its IC50 is over 100 µM.

**Q.** Which IC50 [1, 7] does the source give for `N=c1cc2c(nn1CCCCCCCCCCC(=O)Nc1cc3c(nn1)-c1ccccc1CC3)-c1ccccc1CC2` [MW01-055V] here?
**A.** The IC50 was under 20 µM.

**Q.** What about the IC50 [4] of the same compound?
**A.** The IC50 was 50 to 100 µM.

**Q.** And the IC50 [2, 8]?
**A.** Its IC50 is 50 to 100 µM.

**Q.** Which results are given for `N=c1cc2c(nn1CCCCCCCC(=O)Nc1ccc(-c3ccccc3)nn1)-c1ccccc1CC2` [MW01-097B]?
**A.** IC50 [1, 7]: 20 to 50 µM; IC50 [3]: > 100 µM; IC50 [4]: > 100 µM

**Q.** What does the source list for `Cc1cc(=N)n(CCCCCCCCCCC(=O)Nc2ccc(-c3ccccc3)nn2)nc1-c1ccccc1` [MW01-103B]?
**A.** IC50 [1, 7]: 20 to 50 µM; IC50 [3]: > 100 µM; IC50 [4]: 50 to 100 µM

**Q.** For `N=c1ccc(-c2ccccc2)nn1CCCCCCCCCCC(=O)Nc1ccc(-c2ccccc2)nn1` [MW01-125AZ], which IC50 [1, 7] is on record?
**A.** The IC50 was over 100 µM.

**Q.** And the IC50 [3]?
**A.** Its IC50 is over 100 µM.

**Q.** What about the IC50 [4] of the same compound?
**A.** The IC50 was 20 to 50 µM.

**Q.** And the IC50 [2, 8]?
**A.** The IC50 was 20 to 50 µM.

**Q.** `Cc1ccn(CCCCCCCCCCC(=O)N2CCN(c3ncccn3)CC2)c(=N)c1` [MW01-196-AS] was tested. Which IL-1β production [5] did it give?
**A.** The IL-1β production was “does not show dose dependent inhibition”.

**Q.** What about the iNOS production [5] of the same compound?
**A.** The iNOS production was “does not show dose dependent inhibition”.

**Q.** And the “inhibition of NO accumulation by activated glia” value [6]?
**A.** The value was “little activity”.
